This is an account of results in patent US4703107A, “Water-soluble acylated derivatives of peptides or amino acids, their preparation and their use” (priority 1983, dated 1987).

Values after ≈ are worked out from the molar mass of the structure shown. Structures can show the parent of a compound that is named as a salt. Where two headings read alike, the source gives them in different places. Where a SMILES comes first, the peptide text is derived from it. The star is where a group is joined. dGluconoyl = O=C([C@H](O)[C@@H](O)[C@H](O)[C@H](O)CO)*; NH(9-Et-carbazol-3-yl) = CCn1c2ccccc2c2cc(N*)ccc21

What is called solubility is how much of the substance goes into solution per volume. Higher therefore signals a readily soluble substance.

One series concerns mice. Nature of the series: Toxicity of prodrugs on mice. Format: in vivo. The note with it: for Number of surviving mice at day 8 / Number of surviving mice at day 30 / Weight variation at day 8: two intravenous injections at days 0 and 2, mg/kg/injection: ADR 19,7, GlcA-Gly-Pro-Lys-ADR 35,1, GlcA-Ile-Phe-Lys-ADR 37,0; for Apparent lesions: two intravenous injections at days 0 and 2, footnotes to day 30 column. The text has this: GlcA-Gly-Pro-Lys-Adriamycin and GlcA-Ile-Phe-Lys-Adriamycin was studied on mice after two intravenous injections at days 0 and 2.

For series [1] the following is noted: pH 8.1, aqueous buffer.
For series [2] the following is noted: Table IV; same values as Table I.

For `COc1cccc2c1C(=O)c1c(O)c3c(c(O)c1C2=O)C[C@@](O)(C(=O)CO)C[C@@H]3O[C@H]1C[C@H](N)[C@H](O)[C@H](C)O1` [ADR, Adriamycin, reference compound], in the series on mice, the “Number of surviving mice at day 8” value is on record as 0/8, the “Number of surviving mice at day 30” value is 0/8 and the “Weight variation at day 8” value is given as -17,8%. The compound `CC[C@H](C)[C@H](NC(=O)OC(C)(C)C)C(=O)N[C@@H](Cc1ccccc1)C(=O)N[C@@H](CCCCN)C(=O)Nc1ccc2c(c1)c1ccccc1n2CC` [Boc--Ile--Phe--Lys--AEC, reference compound] registered a solubility in series [1] of 0.04 mM (≈ 0.028 mg/mL). Same read-out and setting: the figure for `CCn1c2ccccc2c2cc(NC(=O)[C@H](CCCCN)NC(=O)[C@H](CC(C)C)NC(=O)[C@@H](NC(=O)OC(C)(C)C)C(C)C)ccc21` [Boc--Val--Leu--Lys--AEC, reference compound] is 2.5 mM (≈ 1.63 mg/mL). The same measure, in the same setting: the figure for `CC[C@H](C)[C@H](NC(=O)CNC(=O)[C@H](O)[C@@H](O)[C@H](O)[C@H](O)CO)C(=O)N[C@@H](Cc1ccccc1)C(=O)N[C@@H](CCCCN)C(=O)Nc1ccc2c(c1)c1ccccc1n2CC` [GlcA--Gly--Ile--Phe--Lys--AEC] (dGluconoyl-GIFK-{NH(9-Et-carbazol-3-yl)}) is 2.5 mM (≈ 2.08 mg/mL). `COc1cccc2c1C(=O)c1c(O)c3c(c(O)c1C2=O)C[C@@](O)(C(=O)CO)C[C@@H]3O[C@H]1C[C@H](NC(=O)[C@H](CCCCN)NC(=O)[C@@H]2CCCN2C(=O)CNC(=O)[C@H](O)[C@@H](O)[C@H](O)[C@H](O)CO)[C@H](O)[C@H](C)O1` [GlcA--Gly--Pro--Lys--ADR, PHA-Gly-L-Pro-L-Lys-Adriamycin]: in the series with mice, the Apparent lesions result is given as “No apparent lesion”, the “Number of surviving mice at day 8” value is reported as 8/8, the “Number of surviving mice at day 30” value was 8/8 and the “Weight variation at day 8” value was “+15,2%”. Take `CCn1c2ccccc2c2cc(NC(=O)[C@H](CCCCN)NC(=O)[C@@H]3CCCN3C(=O)CNC(=O)[C@H](O)[C@@H](O)[C@H](O)[C@H](O)CO)ccc21` [GlcA--Gly--Pro--Lys--AEC]: the “solubility” value in series [2] and in series [1] was 380 mM (≈ 255 mg/mL) in each case.

Consider `CCn1c2ccccc2c2cc(NC(=O)[C@H](CCCNC(=N)N)NC(=O)[C@H](Cc3ccccc3)NC(=O)[C@@H](NC(=O)CNC(=O)[C@H](O)[C@@H](O)[C@H](O)[C@H](O)CO)C(C)C)ccc21` [GlcA--Gly--Val--Phe--Arg--AEC] (dGluconoyl-GVFR-{NH(9-Et-carbazol-3-yl)}), for which the “solubility” value in series [2] and in series [1] was 3.6 mM (≈ 3.05 mg/mL) each time. Regarding `CCn1c2ccccc2c2cc(NC(=O)[C@H](CCCCN)NC(=O)[C@H](Cc3ccccc3)NC(=O)[C@@H](NC(=O)CNC(=O)[C@H](O)[C@@H](O)[C@H](O)[C@H](O)CO)C(C)C)ccc21` [GlcA--Gly--Val--Phe--Lys--AEC] (dGluconoyl-GVFK-{NH(9-Et-carbazol-3-yl)}), the “solubility” value in series [2] and in series [1] was 4.2 mM (≈ 3.44 mg/mL) each time.

With `CC[C@H](C)[C@H](NC(=O)[C@H](O)[C@@H](O)[C@H](O)[C@H](O)CO)C(=O)N[C@@H](CC(C)C)C(=O)N[C@@H](CCCNC(=N)N)C(=O)Nc1ccc2c(c1)c1ccccc1n2CC` [GlcA--Ile--Leu--Arg--AEC], the “solubility” value in series [2] and in series [1] was 143 mM (≈ 110 mg/mL) each time.

As for `CC[C@H](C)[C@H](NC(=O)[C@H](O)[C@@H](O)[C@H](O)[C@H](O)CO)C(=O)N[C@@H](CC(C)C)C(=O)N[C@@H](CCCCN)C(=O)Nc1ccc2c(c1)c1ccccc1n2CC` [GlcA--Ile--Leu--Lys--AEC], the “solubility” value in series [2] and in series [1] was 94 mM (≈ 69.8 mg/mL) in each case. Compound `CC[C@H](C)[C@H](NC(=O)[C@H](O)[C@@H](O)[C@H](O)[C@H](O)CO)C(=O)N[C@@H](Cc1ccccc1)C(=O)N[C@@H](CCCNC(=N)N)C(=O)Nc1ccc2c(c1)c1ccccc1n2CC` [GlcA--Ile--Phe--Arg--AEC] had a solubility in series [1] of 1.1 mM (≈ 0.885 mg/mL). For the compound `CC[C@H](C)[C@H](NC(=O)[C@H](O)[C@@H](O)[C@H](O)[C@H](O)CO)C(=O)N[C@@H](Cc1ccccc1)C(=O)N[C@@H](CCCCN)C(=O)N[C@H]1C[C@H](O[C@H]2C[C@](O)(C(=O)CO)Cc3c(O)c4c(c(O)c32)C(=O)c2c(OC)cccc2C4=O)O[C@@H](C)[C@H]1O` [GlcA--Ile--Phe--Lys--ADR, Glc A-L-Ile-L-Phe-L-Lys-Adriamycin], in the series on mice, the Apparent lesions result is reported as “No apparent lesion”, the “Number of surviving mice at day 8” value was 8/8, the “Number of surviving mice at day 30” value was 8/8 and the “Weight variation at day 8” value is on record as “+14,7%”. `CC[C@H](C)[C@H](NC(=O)[C@H](O)[C@@H](O)[C@H](O)[C@H](O)CO)C(=O)N[C@@H](Cc1ccccc1)C(=O)N[C@@H](CCCCN)C(=O)Nc1ccc2c(c1)c1ccccc1n2CC` [GlcA--Ile--Phe--Lys--AEC, Glc A-Ile-Phe-Lys-AEC, HCl] registered a solubility in series [1] of 0.54 mM. Consider `CCn1c2ccccc2c2cc(NC(=O)[C@H](CCCCN)NC(=O)CNC(=O)[C@H](CO)NC(=O)[C@H](O)[C@@H](O)[C@H](O)[C@H](O)CO)ccc21` [GlcA--Ser--Gly--Lys--AEC], for which the solubility in series [1] stood at 54 mM (≈ 35.7 mg/mL). On to `CCn1c2ccccc2c2cc(NC(=O)[C@H](CCCNC(=N)N)NC(=O)[C@H](CC(C)C)NC(=O)[C@@H](NC(=O)[C@H](O)[C@@H](O)[C@H](O)[C@H](O)CO)C(C)C)ccc21` [GlcA--Val--Leu--Arg--AEC], for which the “solubility” value in series [2] and in series [1] was 227 mM (≈ 172 mg/mL) in each case. As for `CCn1c2ccccc2c2cc(NC(=O)[C@H](CCCNC(=N)N)NC(=O)CNC(=O)[C@H](CC(C)C)NC(=O)[C@@H](NC(=O)[C@H](O)[C@@H](O)[C@H](O)[C@H](O)CO)C(C)C)ccc21` [GlcA--Val--Leu--Gly--Arg--AEC] (dGluconoyl-VLGR-{NH(9-Et-carbazol-3-yl)}), the “solubility” value in series [2] and in series [1] was 67 mM (≈ 54.5 mg/mL) in each case. As for `CCn1c2ccccc2c2cc(NC(=O)[C@H](CCCCN)NC(=O)CNC(=O)[C@H](CC(C)C)NC(=O)[C@@H](NC(=O)[C@H](O)[C@@H](O)[C@H](O)[C@H](O)CO)C(C)C)ccc21` [GlcA--Val--Leu--Gly--Lys--AEC] (dGluconoyl-VLGK-{NH(9-Et-carbazol-3-yl)}), in series [1], the solubility turned out to be 62 mM (≈ 48.7 mg/mL).

`CCn1c2ccccc2c2cc(NC(=O)[C@H](CCCCN)NC(=O)[C@H](CC(C)C)NC(=O)[C@@H](NC(=O)[C@H](O)[C@@H](O)[C@H](O)[C@H](O)CO)C(C)C)ccc21` [GlcA--Val--Leu--Lys--AEC]: the “solubility” value in series [2] and in series [1] was 250 mM (≈ 182 mg/mL) each time.

In the case of `CCn1c2ccccc2c2cc(NC(=O)[C@H](CCCNC(=N)N)NC(=O)[C@H](Cc3ccccc3)NC(=O)[C@@H](NC(=O)[C@H](O)[C@@H](O)[C@H](O)[C@H](O)CO)C(C)C)ccc21` [GlcA--Val--Phe--Arg--AEC], the “solubility” value in series [2] and in series [1] was 100 mM (≈ 79.1 mg/mL) each time. Take `CCn1c2ccccc2c2cc(NC(=O)[C@H](CCCCN)NC(=O)[C@@H]3CCCN3C(=O)CNC(=O)OCc3ccccc3)ccc21` [Z--Gly--Pro--Lys--AEC, reference compound]: the solubility in series [1] came to 0.2 mM (≈ 0.125 mg/mL).

Turning to `CC[C@H](C)[C@H](NC(=O)OCc1ccccc1)C(=O)N[C@@H](Cc1ccccc1)C(=O)N[C@@H](CCCCN)C(=O)Nc1ccc2c(c1)c1ccccc1n2CC` [Z--Ile--Phe--Lys--AEC, reference compound], the concentration in solution in series [1] (solubility) was 0.03 mM (≈ 0.022 mg/mL).
